# Read-outs that look alike come from different tables or passages of the source.
# Key:
# [1] = target: T1, AEA-DA lipid probe targets in Neuro2a cells (Mus musculus, UniProt Q3U9G9)
# T1 sequence (Q3U9G9 1-626): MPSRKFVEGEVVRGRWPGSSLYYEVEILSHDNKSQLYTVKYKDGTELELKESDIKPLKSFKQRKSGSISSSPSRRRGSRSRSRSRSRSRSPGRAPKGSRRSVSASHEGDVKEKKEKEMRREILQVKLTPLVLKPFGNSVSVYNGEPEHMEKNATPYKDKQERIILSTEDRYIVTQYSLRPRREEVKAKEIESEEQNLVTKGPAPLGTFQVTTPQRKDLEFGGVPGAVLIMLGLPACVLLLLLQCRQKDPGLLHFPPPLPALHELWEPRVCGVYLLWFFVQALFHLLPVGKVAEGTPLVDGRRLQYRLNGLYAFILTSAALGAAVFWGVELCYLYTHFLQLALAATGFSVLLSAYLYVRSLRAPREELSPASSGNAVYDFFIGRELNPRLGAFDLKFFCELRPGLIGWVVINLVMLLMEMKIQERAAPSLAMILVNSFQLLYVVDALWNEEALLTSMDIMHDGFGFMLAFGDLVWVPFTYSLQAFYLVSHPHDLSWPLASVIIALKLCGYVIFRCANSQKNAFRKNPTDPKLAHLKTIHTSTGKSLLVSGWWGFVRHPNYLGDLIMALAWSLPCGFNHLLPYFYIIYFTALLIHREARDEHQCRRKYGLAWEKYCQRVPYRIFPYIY
# [2] = target: T2, AEA-DA lipid probe targets in Neuro2a cells (Mus musculus, UniProt Q8BH59)
# T2 sequence (Q8BH59 1-677): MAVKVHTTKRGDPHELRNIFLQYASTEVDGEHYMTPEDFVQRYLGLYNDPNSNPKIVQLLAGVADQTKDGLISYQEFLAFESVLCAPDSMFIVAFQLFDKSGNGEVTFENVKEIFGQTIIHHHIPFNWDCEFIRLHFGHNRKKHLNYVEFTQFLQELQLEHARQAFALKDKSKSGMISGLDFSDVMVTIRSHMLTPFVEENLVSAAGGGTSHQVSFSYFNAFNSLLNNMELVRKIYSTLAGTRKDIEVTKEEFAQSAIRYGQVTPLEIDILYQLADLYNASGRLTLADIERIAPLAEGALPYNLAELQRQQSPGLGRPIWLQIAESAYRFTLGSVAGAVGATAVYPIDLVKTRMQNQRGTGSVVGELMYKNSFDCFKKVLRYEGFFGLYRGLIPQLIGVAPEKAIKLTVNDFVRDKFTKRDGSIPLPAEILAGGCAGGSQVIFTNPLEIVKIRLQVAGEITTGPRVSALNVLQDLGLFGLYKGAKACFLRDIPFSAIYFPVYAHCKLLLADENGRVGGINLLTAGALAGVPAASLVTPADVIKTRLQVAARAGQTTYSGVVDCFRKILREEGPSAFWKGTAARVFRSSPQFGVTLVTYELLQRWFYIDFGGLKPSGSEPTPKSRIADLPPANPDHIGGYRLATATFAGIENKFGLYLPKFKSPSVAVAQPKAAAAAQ
# [3] = target: T3, AEA-DA lipid probe targets in Neuro2a cells (Mus musculus, UniProt Q8R404)
# T3 sequence (Q8R404 1-119): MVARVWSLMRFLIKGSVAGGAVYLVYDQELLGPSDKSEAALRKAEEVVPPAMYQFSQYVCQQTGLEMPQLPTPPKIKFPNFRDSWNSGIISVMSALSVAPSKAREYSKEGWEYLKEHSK
# [4] = target: T4, AEA-DA lipid probe targets in Neuro2a cells (Mus musculus, UniProt Q8VI75)
# T4 sequence (Q8VI75 1-1082): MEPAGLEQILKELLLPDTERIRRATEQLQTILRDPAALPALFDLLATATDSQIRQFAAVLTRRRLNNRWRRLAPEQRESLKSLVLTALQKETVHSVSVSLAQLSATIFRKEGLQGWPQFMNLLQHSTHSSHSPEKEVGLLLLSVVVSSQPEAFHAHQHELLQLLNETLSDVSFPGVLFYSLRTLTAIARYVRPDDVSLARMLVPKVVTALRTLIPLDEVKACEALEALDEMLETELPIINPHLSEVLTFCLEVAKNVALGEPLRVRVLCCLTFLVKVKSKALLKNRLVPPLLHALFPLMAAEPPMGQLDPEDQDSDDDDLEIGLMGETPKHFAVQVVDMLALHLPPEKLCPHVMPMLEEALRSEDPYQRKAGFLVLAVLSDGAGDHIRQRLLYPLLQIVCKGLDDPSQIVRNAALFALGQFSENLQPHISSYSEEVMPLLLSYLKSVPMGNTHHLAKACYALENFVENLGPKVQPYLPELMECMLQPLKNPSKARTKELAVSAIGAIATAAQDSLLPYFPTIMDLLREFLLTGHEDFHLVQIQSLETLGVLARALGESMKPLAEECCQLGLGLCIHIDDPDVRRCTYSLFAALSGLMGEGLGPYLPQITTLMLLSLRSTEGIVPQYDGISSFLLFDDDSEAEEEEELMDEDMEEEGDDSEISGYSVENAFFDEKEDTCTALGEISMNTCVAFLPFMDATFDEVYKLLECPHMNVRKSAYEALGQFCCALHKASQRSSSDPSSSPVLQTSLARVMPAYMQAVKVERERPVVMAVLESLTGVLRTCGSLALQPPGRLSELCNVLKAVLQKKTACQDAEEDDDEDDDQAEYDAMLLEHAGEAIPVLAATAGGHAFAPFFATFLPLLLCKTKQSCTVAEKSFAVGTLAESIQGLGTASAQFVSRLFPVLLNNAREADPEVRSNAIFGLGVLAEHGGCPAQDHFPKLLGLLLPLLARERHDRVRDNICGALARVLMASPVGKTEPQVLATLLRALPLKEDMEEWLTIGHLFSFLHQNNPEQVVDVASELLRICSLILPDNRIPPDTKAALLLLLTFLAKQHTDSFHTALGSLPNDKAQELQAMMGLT
Structure (SMILES),"SILAC ratio, Lbr ([1]; competitor 25 μM)",SILAC ratio Slc25a12 ([2]; competitor 25 μM),"SILAC ratio, Qil1 ([3]; competitor 25 μM)",SILAC ratio Ipo4 ([4]; competitor 25 μM),further results
"CCCCC/C=C\C/C=C\C/C=C\C/C=C\CCCC(=O)NCCO [AEA, anandamide, reference compound]",–,–,–,–,"SILAC ratio, Lbr ([1]; competitor 200 μM): 2.0; SILAC ratio Slc25a12 ([2]; competitor 200 μM): 1.1; SILAC ratio, Qil1 ([3]; competitor 200 μM): 1.9; SILAC ratio Ipo4 ([4]; competitor 200 μM): 1.5"
"O=C(/C=C/c1cccnc1)NCCCCC1CCN(C(=O)c2ccccc2)CC1 [FK-866, reference compound]",1.0,1.1,1.2,1.3,–
"CN1CCN(C(=O)c2c(-c3ccccc3)c3cc([N+](=O)[O-])ccc3n2C)CC1 [KML110, (1-Methyl-5-nitro-3-phenyl-1H-indol-2-yl)(4-methylpiperazin-1-yl)methanone]",1.2,1.1,1.5,1.4,–
"CN1CCN(C(=O)c2[nH]c3ccc([N+](=O)[O-])cc3c2-c2ccccc2)CC1 [MJN228, (4-Methylpiperazin-1-yl)(5-nitro-3-phenyl-1H-indol-2-yl)methanone]",1.3,1.0,1.5,1.3,"SILAC ratio, Lbr ([1]; competitor 10 μM): 1.1; SILAC ratio, Lbr ([1]; competitor 50 μM): 1.5; SILAC ratio, Lbr ([1]; competitor 100 μM): 1.8; SILAC ratio Slc25a12 ([2]; competitor 10 μM): 1.0; SILAC ratio Slc25a12 ([2]; competitor 50 μM): 0.9; SILAC ratio Slc25a12 ([2]; competitor 100 μM): 1.0; SILAC ratio, Qil1 ([3]; competitor 10 μM): 1.2; SILAC ratio, Qil1 ([3]; competitor 50 μM): 1.7; SILAC ratio, Qil1 ([3]; competitor 100 μM): 2.5; SILAC ratio Ipo4 ([4]; competitor 10 μM): 1.0; SILAC ratio Ipo4 ([4]; competitor 50 μM): 1.0; SILAC ratio Ipo4 ([4]; competitor 100 μM): 1.6"
"C=CCN(C)CCCCCCOc1ccc(C(=O)c2ccc(Br)cc2)c(F)c1 [Ro 48-8071, reference compound]",1.9,1.0,1.2,1.0,–

# Source: patent US10168342B2, “Lipid probes and uses thereof” (THE SCRIPPS RESEARCH INSTITUTE, priority 2015, dated 2019)
